Test results: patent US10550166B2, “Immunogenic peptides of the cyclin B1 tumor antigen” (Commissariat a l'Energie Atomique et aux Energies …, priority 2013, dated 2020)

Experiments:
[1] = tested on: CD4+ T lymphocytes; assay: induction of peptide-specific CD4+ T lymphocyte lines with peptide-loaded dendritic cells, Elispot; type: cell-based, human; details: for Average strength (%): CD4+ T response, 13 healthy donors; for frequency: frequency of responders among 13 donors; for responders: number of responding donors out of 13; for Number of specific responses, total: total over 13 healthy donors
Excerpt: The blood samples (buffy coat) come from the Etablissement Francais du Sang [French blood bank] (Rungis center). The peripheral blood mononuclear cells (PBMCs) were isolated by means of a ficoll gradient. The immature dendritic cells (DCs) were obtained from the PBMCs by differentiation of the adherent cells after 5 days of culture in AIM-V medium (Life Technologies) containing 1000 U/ml of IL-4 and 1000 U/ml of GM-CSF (R&D Systems). The mature DCs were obtained from the immature DCs after having been cultured for two days in the presence of lipopolysaccharide (LPS). The CD4^+ T lymphocytes were purified from the PBMCs using magnetic microbeads coupled to anti-CD4 antibodies (Miltenyi Biotec). The HLA-DRB1 genotyping of the donors was carried out by sequence-specific PCR using the All Set^+™ Gold SSP HLA-DRB1 kit (Invitrogen).
The CD4^+ T lymphocytes (1 to 3×10^5) were cultured in round-bottomed 96-well plates with autologous immature DCs preloaded with 1.2 μM of CCNB1 and matured in the presence of LPS, or with autologous mature DCs preloaded with pools of peptides (10 μg/ml). The culturing is carried out in IMDM medium (Life Technologies) supplemented with human serum of group AB (complete IMDM medium) containing 1000 U/ml of IL-6 (R&D Systems) and 10 ng/ml of IL-12 (R&D Systems). The culture is stimulated at the end of one week by adding 10 000 to 30 000 DCs loaded with the CCNB1 protein or the pools of peptides, 20 U/ml of IL-2 (R&D Systems) and 10 ng/ml of IL-7 (R&D Systems). Another stimulation is carried out after 14 and optionally 21 days of culture. Between 5 and 7 days after the final stimulation, a specificity test is carried out by EliSpot. Each culture well constitutes a CD4^+ T lymphocyte line.
The anti-human IFN-γ antibody 1-D1K (Mabtech) is adsorbed at 2.5 μg/ml in 1×PBS onto 96-well Multiscreen®-HA plates (Millipore) by overnight incubation at 4° C. The plates are then saturated by incubation for 2 hours at 37° C. with complete IMDM medium. The CD4^+ T lymphocytes are incubated for 16 hours at 37° C. in these plates after having been washed in AIM-V/IL-7 medium (0.5 ng/ml of IL-7). The autologous immature DCs (5000 cells/well) preloaded for 4 hours with the CCNB1 protein or KLH (0.5 to 3 μM) or PBMCs (50 000 cells/well) incubated in the presence of 10 μg/ml of peptides are used as presenting cells. After incubation, the plates are washed with distilled water, PBS/0.05% Tween and PBS. 100 μl/well of biotinylated anti-human IFN-γ Ab 7-B6-1 (Mabtech) at 0.25 μg/ml in 1×PBS/1% BSA is added to the plates, which are incubated for 1 h 30 min at 37° C. […] After 5 to 10 minutes of incubation, the reaction is stopped by washing with running water. After drying, the spots are counted on an Elispot reader (AID). A CD4^+ T lymphocyte line is considered to be antigen-specific if the number of spots in the wells containing the antigen is at least two times higher than the well not containing the antigen, the difference between the 2 types of well being at least greater than 25. The frequency of the CD4^+ T lymphocytes present in the donor blood is estimated using the Poisson's law distribution according to the formula: frequency=−Ln ((number of nonspecific lines/total number of lines tested))/(number of CD4^+ lymphocytes incubated in each well).
13 healthy donors comprising HLA molecules which are varied and most of which are very frequent in the Caucasian population were selected (Table IX).
CD4^+ T lymphocyte lines were obtained by coculture of the CD4^+ T lymphocytes with autologous dendritic cells preloaded with pools of peptides. After amplification of the T lymphocytes, each line was tested by Elispot (Table IX). The results are reported in the form of the number of times when a response to a peptide is observed. All the peptides induce a T lymphocyte response, but the strength of the response and the number of responders are very variable. 9 peptides activate T lymphocytes in more than half the donors.

[2] = tested on: class II HLA molecules; assay: number of class II HLA molecules bound out of the 12 tested; type: binding, human
[3] = target: T1, HLA-DRB4 (DRB4*01:01) (Homo sapiens, UniProt P01903+P13762, G164S); assay: competitive binding assay to purified class II HLA molecule, ELISA read-out
T1 construct: Lymphoblastoid cells transformed with the EBV virus, homozygous for class II HLA molecules, are used as a source of class II HLA molecules; endogenous in cells; host or cells: EBV-transformed lymphoblastoid cells homozygous for class II HLA

[4] = Donor 22, HLA-DRB1 typing 01:01/09:01
[5] = Donor 31, HLA-DRB1 typing 13:01/16:01
[6] = Donor 32, HLA-DRB1 typing 03:01
[7] = Donor 56, HLA-DRB1 typing 07:01/11:01
[8] = Donor 876, HLA-DRB1 typing 11:01/11:04
[9] = Donor 14, HLA-DRB1 typing 07:01/13:01
[10] = Donor 30, HLA-DRB1 typing 07:01/11:01
[11] = Donor 877, HLA-DRB1 typing 01:01/13:01
[12] = Donor 26, HLA-DRB1 typing 11:04/15:01
[13] = Donor 996, HLA-DRB1 typing 08:04/14:08

Row | Compound | Average strength (%) [1] [%] | frequency [1] [%] | responders [1] | Number of specific responses, total [1] | Number HLA II [2] | also measured
1 | RPLPLHFLRRASKIGEVDV (H-RPLPLHFLRRASKIGEVDV-NH2) [Peptide 299-317] | 5.0 | 77 | 10 | 33 | – | Number of specific responses [1, 4]: 8; Number of specific responses [1, 5]: 6; Number of specific responses [1, 6]: 2; Number of specific responses [1, 7]: 6; Number of specific responses [1, 8]: 4
2 | RPLPLHFLRRASKIG [Peptide 299-313] | – | – | – | – | 6 | –
3 | SQIAAGAFCLALKIL (synthetic peptide CCNB1 342-356) [Peptide 342-356] | 0.8 | 31 | 4 | 5 | 7 | Number of specific responses [1, 9]: 1; Number of specific responses [1, 10]: 1; Number of specific responses [1, 6]: 1; Number of specific responses [1, 7]: 2
4 | GNMRAILIDWLVQVQMKF (H-GNMRAILIDWLVQVQMKF-NH2) [Peptide 199-216] | 1.2 | 38 | 5 | 8 | – | Number of specific responses [1, 7]: 3
5 | KKMLQLVGVTAMFIASKY (H-KKMLQLVGVTAMFIASKY-NH2) [Peptide 241-258] | 2.3 | 54 | 7 | – | – | Number of specific responses [1, 11]: 4
6 | QGLTKHMTVKNKYAT [Peptide 392-406] | – | – | – | – | 2 | –
7 | EQLQAKMPMKKEAKP [Peptide 54-68] | – | – | – | – | 1 | –
8 | SEYVKDIYAYLRQLE (synthetic peptide CCNB1 168-182) [Peptide 168-182] | 2.0 | 62 | 8 | 13 | 7 | Number of specific responses [1, 9]: 1; Number of specific responses [1, 4]: 2; Number of specific responses [1, 12]: 1; Number of specific responses [1, 10]: 1; Number of specific responses [1, 5]: 4; Number of specific responses [1, 7]: 1; Number of specific responses [1, 11]: 1; Number of specific responses [1, 13]: 2
9 | KHMTVKNKYATSKHA [Peptide 396-410] | – | – | – | – | 2 | –
10 | MELTMLDYDMVHFPP [Peptide 327-341] | – | – | – | – | 5 | –
11 | PTLQHYLSYTEESLLPVM (H-PTLQHYLSYTEESLLPVM-NH2) [Peptide 363-380] | 1.1 | 38 | – | 7 | – | Number of specific responses [1, 9]: 2; Number of specific responses [1, 8]: 2
12 | PQLNSALVQDLAKAVAKV (H-PQLNSALVQDLAKAVAKV-NH2) [Peptide 416-433] | 6.1 | 77 | 10 | 39 | – | Number of specific responses [1, 9]: 13; Number of specific responses [1, 4]: 2; Number of specific responses ([1]; Donor 23, HLA-DRB1 typing 04:01/13:01): 5; Number of specific responses [1, 10]: 2; Number of specific responses [1, 5]: 5; Number of specific responses [1, 7]: 5; Number of specific responses [1, 13]: 2
13 | QHYLSYTEESLLPVM [Peptide 366-380] | – | – | – | – | 8 | –
14 | VQMKFRLLQETMYMT (H-VQMKFRLLQETMYMT-NH2) [Peptide 212-226] | 0.8 | 23 | 3 | – | 10 | Number of specific responses ([1]; Donor 62, HLA-DRB1 typing 01:01/04:05): 3
15 | NTYTKHQIRQMEMKI [Peptide 275-289] | – | – | – | – | 5 | –
16 | QAFSDVILAVNDVDA [Peptide 144-158] | – | – | – | – | 5 | –
17 | HQIRQMEMKILRALNFGLGR (H-HQIRQMEMKILRALNFGLGR-NH2) [Peptide 280-299] | 3.5 | 85 | 11 | 23 | – | Number of specific responses [1, 4]: 3; Number of specific responses [1, 12]: 3; Number of specific responses [1, 5]: 3
18 | KPLEKVPMLVPVPVS [Peptide 81-95] | – | – | – | – | 0 | –
19 | ETMYMTVSIIDRFMQ (H-ETMYMTVSIIDRFMQ-NH2) [Peptide 221-235] | 1.5 | 54 | – | 10 | 12 | Number of specific responses [1, 9]: 2; Number of specific responses [1, 4]: 3
20 | CC[C@H](C)[C@H](NC(=O)[C@@H](NC(=O)[C@H](C)NC(=O)[C@H](CCCCN)NC(=O)[C@H](CC(=O)O)NC(=O)[C@@H](NC(=O)[C@H](CCC(=O)O)NC(=O)[C@@H](NC(=O)[C@H](C)NC(=O)[C@H](CC(C)C)NC(=O)[C@H](CC(C)C)NC(=O)[C@H](CC(=O)O)NC(=O)CNC(=O)[C@H](C)N)[C@@H](C)CC)[C@@H](C)O)[C@@H](C)O)C(N)=O [E2/E168, reference compound] | – | – | – | – | – | IC50 [3]: 10 nM
21 | HTLAKYLMELTMLDY (H-HTLAKYLMELTMLDY-NH2) [Peptide 320-334] | – | – | – | – | 12 | –
22 | HTLAKYLMELTMLDYDMV (H-HTLAKYLMELTMLDYDMV-NH2) [Peptide 320-337] | – | 38 | 5 | – | – | –
23 | NCVPKKMLQLVGVTA [Peptide 237-251] | – | – | – | – | 3 | –
24 | KKMLQLVGVTAMFIA [Peptide 241-255] | – | – | – | – | 8 | –
25 | REVTGNMRAILIDWL [Peptide 195-209] | – | – | – | – | 5 | –
